Biological target: T1, hTRPM8 (Homo sapiens, UniProt Q7Z2W7)
T1 construct: expressed in transfected cells
Assay: Assay on TRPM8 modulators: calcium imaging (Fluo-4, Flexstation) in HEK293 cell line stably expressing hTRPM8
Assay type: cell-based
Conditions: HEK293 cells stably expressing hTRPM8; calcium influx, Fluo-4, Flexstation 3; sigmoidal dose-response fit
How it was run: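 HEK293 cells stably expressing hTRPM8 were loaded with Fluo-4 AM plus probenecid and kept in HEPES buffer, pH 7.4. Calcium influx to serially diluted compounds was recorded for 120 s. Maximal activation was referenced to solvent control and 31.6 μM menthol, with EC values from sigmoidal dose-response fits.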

T1 sequence (Q7Z2W7 whole entry): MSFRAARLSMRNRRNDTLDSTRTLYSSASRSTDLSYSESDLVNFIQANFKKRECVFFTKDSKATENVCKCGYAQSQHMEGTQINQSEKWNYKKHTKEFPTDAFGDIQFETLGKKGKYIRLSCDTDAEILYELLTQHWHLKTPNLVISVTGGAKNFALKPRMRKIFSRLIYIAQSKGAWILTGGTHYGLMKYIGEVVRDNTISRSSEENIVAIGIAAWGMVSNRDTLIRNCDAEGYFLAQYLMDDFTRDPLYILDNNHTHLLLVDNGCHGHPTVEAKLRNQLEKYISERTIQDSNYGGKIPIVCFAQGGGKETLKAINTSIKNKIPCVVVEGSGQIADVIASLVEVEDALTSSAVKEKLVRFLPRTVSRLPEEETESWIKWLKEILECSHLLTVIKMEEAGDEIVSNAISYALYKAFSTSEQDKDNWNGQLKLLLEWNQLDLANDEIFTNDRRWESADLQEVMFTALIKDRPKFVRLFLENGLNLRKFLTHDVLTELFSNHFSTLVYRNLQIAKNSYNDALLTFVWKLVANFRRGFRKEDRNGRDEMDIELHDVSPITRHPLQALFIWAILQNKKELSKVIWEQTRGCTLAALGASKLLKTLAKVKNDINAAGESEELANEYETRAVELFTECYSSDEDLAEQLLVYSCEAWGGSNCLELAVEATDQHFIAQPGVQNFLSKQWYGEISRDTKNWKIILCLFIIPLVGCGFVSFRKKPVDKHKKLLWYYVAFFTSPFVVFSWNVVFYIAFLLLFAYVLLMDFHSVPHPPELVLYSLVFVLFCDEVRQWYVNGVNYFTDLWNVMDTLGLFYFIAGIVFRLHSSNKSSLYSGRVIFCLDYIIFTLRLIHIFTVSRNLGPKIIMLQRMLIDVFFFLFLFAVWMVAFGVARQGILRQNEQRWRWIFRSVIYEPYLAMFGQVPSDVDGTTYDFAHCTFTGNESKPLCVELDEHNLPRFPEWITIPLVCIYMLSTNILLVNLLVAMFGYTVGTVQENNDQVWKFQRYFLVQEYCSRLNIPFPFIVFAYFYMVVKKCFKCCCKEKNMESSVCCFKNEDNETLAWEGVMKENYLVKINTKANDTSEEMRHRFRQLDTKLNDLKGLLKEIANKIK

EC50 [nM]	Compound
50 to 300	CSC(C)C(=O)N1CCCCC1c1nc(-c2cnn(C(F)(F)F)c2)c[nH]1 (centres unmarked) [Compound 106, 2-(methylthio)-1-(2-(4-(1-(trifluoromethyl)-1H-pyrazol-4-yl)-1H-imidazol-2-yl)piperidin-1-yl)propan-1-one]
1000 to 35000	CSC(C)C(=O)N1CCCCC1c1nc(-c2ccc(CN3CCOCC3)cc2)c[nH]1 (centres unmarked) [Compound 107, 2-(methylthio)-1-(2-(4-(4-(morpholinomethyl)phenyl)-1H-imidazol-2-yl)piperidin-1-yl)propan-1-one]
< 50	CSC(C)C(=O)N1CCCCC1c1nc(-c2ccc(C(F)(F)F)o2)c[nH]1 (centres unmarked) [Compound 108, 2-(methylthio)-1-(2-(4-(5-(trifluoromethyl)furan-2-yl)-1H-imidazol-2-yl)piperidin-1-yl)propan-1-one]
< 50	CSC(C)C(=O)N1CCCCC1c1nc(-c2ccc(C(F)(F)F)s2)c[nH]1 (centres unmarked) [Compound 109, 2-(methylthio)-1-(2-(4-(5-(trifluoromethyl)thiophen-2-yl)-1H-imidazol-2-yl)piperidin-1-yl)propan-1-one]
< 50	CSC(C)C(=O)N1CCCCC1c1nc(-c2csc(C)c2)c[nH]1 (centres unmarked) [Compound 110, 2-(methylthio)-1-(2-(4-(5-methylthiophen-3-yl)-1H-imidazol-2-yl)piperidin-1-yl)propan-1-one]
50 to 300	CSC(C)C(=O)N1CCCCC1c1nc(-c2cccc(C)c2)c[nH]1 (centres unmarked) [Compound 111, 2-(methylthio)-1-(2-(4-(m-tolyl)-1H-imidazol-2-yl)piperidin-1-yl)propan-1-one]
50 to 300	CSC(C)C(=O)N1CCCCC1c1nc(-c2ccccc2C)c[nH]1 (centres unmarked) [Compound 112, 2-(methylthio)-1-(2-(4-(o-tolyl)-1H-imidazol-2-yl)piperidin-1-yl)propan-1-one]
300 to 1000	CSC(C)C(=O)N1CCCCC1c1nc(-c2cccnc2)c[nH]1 (centres unmarked) [Compound 113, 2-(methylthio)-1-(2-(4-(pyridin-3-yl)-1H-imidazol-2-yl)piperidin-1-yl)propan-1-one]
300 to 1000	CSC(C)C(=O)N1CCCCC1c1nc(-c2ccncc2)c[nH]1 (centres unmarked) [Compound 114, 2-(methylthio)-1-(2-(4-(pyridin-4-yl)-1H-imidazol-2-yl)piperidin-1-yl)propan-1-one]
1000 to 35000	CSC(C)C(=O)N1CCCCC1c1nc(-c2cncnc2)c[nH]1 (centres unmarked) [Compound 115, 2-(methylthio)-1-(2-(4-(pyrimidin-5-yl)-1H-imidazol-2-yl)piperidin-1-yl)propan-1-one]
300 to 1000	CSC(C)C(=O)N1CCCCC1c1nc(-c2ccc3nccnc3c2)c[nH]1 (centres unmarked) [Compound 116, 2-(methylthio)-1-(2-(4-(quinoxalin-6-yl)-1H-imidazol-2-yl)piperidin-1-yl)propan-1-one]
50 to 300	CSC(C)C(=O)N1CCCCC1c1nc(-c2ccsc2)c[nH]1 (centres unmarked) [Compound 117, 2-(methylthio)-1-(2-(4-(thiophen-3-yl)-1H-imidazol-2-yl)piperidin-1-yl)propan-1-one]
300 to 1000	CSCC(=O)N1CCCCC1c1nc(-c2ccccc2)c[nH]1 (centres unmarked) [Compound 118, 2-(methylthio)-1-(2-(4-phenyl-1H-imidazol-2-yl)piperidin-1-yl)ethan-1-one]
300 to 1000	CSC(C)C(=O)N1CCCCC1c1ncc(-c2ccccc2C(F)(F)F)[nH]1 (centres unmarked) [Compound 119, 2-(methylthio)-1-(2-(5-(2-(trifluoromethyl)phenyl)-1H-imidazol-2-yl)piperidin-1-yl)propan-1-one]
< 50	CSC(C)C(=O)N1CCCCC1c1ncc(-c2ccc(F)c(F)c2F)[nH]1 (centres unmarked) [Compound 120, 2-(methylthio)-1-(2-(5-(2,3,4-trifluorophenyl)-1H-imidazol-2-yl)piperidin-1-yl)propan-1-one]
< 50	CSC(C)C(=O)N1CCCCC1c1ncc(-c2cc(F)c(F)cc2F)[nH]1 (centres unmarked) [Compound 121, 2-(methylthio)-1-(2-(5-(2,4,5-trifluorophenyl)-1H-imidazol-2-yl)piperidin-1-yl)propan-1-one]
50 to 300	CSC(C)C(=O)N1CCCCC1c1ncc(-c2cccc(C(F)(F)F)c2)[nH]1 (centres unmarked) [Compound 122, 2-(methylthio)-1-(2-(5-(3-(trifluoromethyl)phenyl)-1H-imidazol-2-yl)piperidin-1-yl)propan-1-one]
< 50	CSC(C)C(=O)N1CCCCC1c1ncc(-c2ccc(OC(F)(F)F)cc2)[nH]1 (centres unmarked) [Compound 123, 2-(methylthio)-1-(2-(5-(4-(trifluoromethoxy)phenyl)-1H-imidazol-2-yl)piperidin-1-yl)propan-1-one]
< 50	CCCc1ccc(-c2cnc(C3CCCCN3C(=O)C(C)SC)[nH]2)cc1 (centres unmarked) [Compound 125, 2-(methylthio)-1-(2-(5-(4-propylphenyl)-1H-imidazol-2-yl)piperidin-1-yl)propan-1-one]
< 50	C=Cc1ccc(-c2cnc(C3CCCCN3C(=O)C(C)SC)[nH]2)cc1 (centres unmarked) [Compound 126, 2-(methylthio)-1-(2-(5-(4-vinylphenyl)-1H-imidazol-2-yl)piperidin-1-yl)propan-1-one]
300 to 1000	CSC(C)C(=O)N1CCCCC1c1nnc(-c2ccc(C)cc2)o1 (centres unmarked) [Compound 128, 2-(methylthio)-1-(2-(5-(p-tolyl)-1,3,4-oxadiazol-2-yl)piperidin-1-yl)propan-1-one]

EC50 [nM]	Compound
< 50	CSC(C)C(=O)N1CCCCCC1c1ncc(-c2ccc(C)cc2)[nH]1 (centres unmarked) [Compound 129, 2-(methylthio)-1-(2-(5-(p-tolyl)-1H-imidazol-2-yl)azepan-1-yl)propan-1-one]
< 50	CSC(C)C(=O)N1CCCCC1c1nnc(-c2ccc(C)cc2)[nH]1 (centres unmarked) [Compound 131, 2-(methylthio)-1-(2-(5-(p-tolyl)-4H-1,2,4-triazol-3-yl)piperidin-1-yl)propan-1-one]
50 to 300	CSC(C)C(=O)N1CCCCC1c1cc(-c2ccc(C)cc2)on1 (centres unmarked) [Compound 132, 2-(methylthio)-1-(2-(5-(p-toly)isoxazol-3-yl)piperidin-1-yl)propan-1-one]
< 50	CSC(C)C(=O)N1CCCCC1c1ncc(-c2ccc(C)cc2)o1 (centres unmarked) [Compound 133, 2-(methylthio)-1-(2-(5-(p-tolyl)oxazol-2-yl)piperidin-1-yl)propan-1-one]
< 50	CSC(C)C(=O)N1CCCCC1c1ncc(-c2ccc(C)cc2)s1 (centres unmarked) [Compound 134, 2-(methylthio)-1-(2-(5-(p-tolyl)thiazol-2-yl)piperidin-1-yl)propan-1-one]
1000 to 35000	CSC(C)C(=O)N1CCC[C@@H]1c1ncc(-c2ccccc2)[nH]1 (stereo partly drawn) [Compound 136, 2-(methylthio)-1-((R)-2-(5-phenyl-1H-imidazol-2-yl)pyrrolidin-1-yl)propan-1-one]
50 to 300	CSC(C)C(=O)N1CCCCC1c1nnc(-c2ccccc2)[nH]1 (centres unmarked) [Compound 137, 2-(methylthio)-1-(2-(5-phenyl-4H-1,2,4-triazol-3-yl)piperidin-1-yl)propan-1-one]
300 to 1000	CSC(C)C(=O)N1CCCCC1c1ncc(-c2ccccc2)o1 (centres unmarked) [Compound 138, 2-(methylthio)-1-(2-(5-phenyloxazol-2-yl)piperidin-1-yl)propan-1-one]
50 to 300	CSC(C)C(=O)N1CSCC1c1ncc(-c2ccc(C)cc2)[nH]1 (centres unmarked) [Compound 139, 2-(methylthio)-1-(4-(5-(p-tolyl)-1H-imidazol-2-yl)thiazolidin-3-yl)propan-1-one]
< 50	C=C(C)C(C)(C)C(=O)N1CCCCC1c1ncc(-c2ccc(C)cc2)[nH]1 (centres unmarked) [Compound 140, 2,2,3-trimethyl-1-(2-(5-(p-tolyl)-1H-imidazol-2-yl)piperidin-1-yl)but-3-en-1-one]
< 50	Cc1ccc(-c2cnc(C3CCCCN3C(=O)C(C)(C)C(C)C)[nH]2)cc1 (centres unmarked) [Compound 141, 2,2,3-trimethyl-1-(2-(5-(p-tolyl)-1H-imidazol-2-yl)piperidin-1-yl)butan-1-one]
< 50	C=CC(C)(C)C(=O)N1CCCCC1c1ncc(-c2ccc(C)cc2)[nH]1 (centres unmarked) [Compound 142, 2,2-dimethyl-1-(2-(5-(p-tolyl)-1H-imidazol-2-yl)piperidin-1-yl)but-3-en-1-one]
< 50	CCC(C)(C)C(=O)N1CCCCC1c1ncc(-c2ccc(C)cc2)[nH]1 (centres unmarked) [Compound 143, 2,2-dimethyl-1-(2-(5-(p-tolyl)-1H-imidazol-2-yl)piperidin-1-yl)butan-1-one]
1000 to 35000	COCC(OC)C(=O)N1CCCCC1c1nc(-c2ccccc2)c[nH]1 (centres unmarked) [Compound 144, 2,3-dimethoxy-1-(2-(4-phenyl-1H-imidazol-2-yl)piperidin-1-yl)propan-1-one]
50 to 300	CC(C)C(C)C(=O)N1CCCCC1c1nc(-c2ccccc2)c[nH]1 (centres unmarked) [Compound 145, 2,3-dimethyl-1-(2-(4-phenyl-1H-imidazol-2-yl)piperidin-1-yl)butan-1-one]
< 50	CSC(C)C(=O)N1CCCCC1c1nc(-c2cc(F)c(C#N)cc2F)c[nH]1 (centres unmarked) [Compound 146, 2,5-difluoro-4-(2-(1-(2-(methylthio)propanoyl)piperidin-2-yl)-1H-imidazol-4-yl)benzonitrile]
1000 to 35000	Cc1ccc(-c2cnc(C3CCCCN3C(=O)C(C)N)[nH]2)cc1 (centres unmarked) [Compound 147, 2-amino-1-(2-(5-(p-toly)-1H-imidazol-2-yl)piperidin-1-yl)propan-1-one]
50 to 300	CC(C(=O)N1CCCCC1c1nc(-c2ccccc2)c[nH]1)C1CCC1 (centres unmarked) [Compound 148, 2-cyclobutyl-1-(2-(4-phenyl-1H-imidazol-2-yl)piperidin-1-yl)propan-1-one]
1000 to 35000	CCOC(C(=O)N1CCCCC1c1nc(-c2ccccc2)c[nH]1)C1CCCC1 (centres unmarked) [Compound 149, 2-cyclopentyl-2-ethoxy-1-(2-(4-phenyl-1H-imidazol-2-yl)piperidin-1-yl)ethan-1-one]
1000 to 35000	O=C(CC1CC1)N1CCCCC1c1nc(-c2ccccc2)c[nH]1 (centres unmarked) [Compound 150, 2-cyclopropyl-1-(2-(4-phenyl-1H-imidazol-2-yl)piperidin-1-yl)ethan-1-one]

Source: patent US12528801B2 (Givaudan SA, priority 2019, dated 2026)
